Experimental findings from patent US10183032B2, “Methods for treating bacterial infection” (Ball State Innovation Corporation, priority 2012, dated 2019) are described below.

Series [1] relates to Staphylococcus aureus. Nature of the series: Intracellular S. aureus population in HUVEC 48 hours post infection, CFU. Type of series: cell-based. The settings on record: HUVEC pretreated 18 hours (1.0 μM FIG. 7; 10 μM FIG. 11), infected 1 hour. The procedure:
FIG. 7 is a graph illustrating suppression of intracellular population sustained over time. Human umbilical vein endothelial cells (HUVEC) were pretreated (1.0 μM, 18 hours) with the vehicle control dimethyl sulfoxide (DMSO) or ML 141 and infected with Staphylococcus aureus (1 hour). At 48 hours, intracellular bacteria were recovered, serial dilutions incubated on tryptic soy agar and colonies enumerated. Data are presented as % control, ±SEM (*less than vehicle control; p≤0.05 by t-test; n=3-5/treatment).
FIG. 11 is a graph illustrating suppression of intracellular population sustained over time. […]
Two days prior to the assay, TSB is inoculated with S. aureus (American Type Culture Collection #29213) and incubated overnight (225 rpm, 37° C.). […] To detect the level of infection using flow cytometry, cells that have been infected with fluorescently-labeled bacteria are washed extensively with PBS, lifted from 96-well plate by incubation with trypsin, washed extensively in FACS buffer (2% BSA/0.1% sodium azide/PBS), fixed (FACS buffer containing 0.74% formaldehyde), and are counted using an Accuri flow cytometer (BD, Franklin Lakes, N.J.). They are also lifted from culture dishes using cell scrapers, pelleted, fixed (1% BSA/0.74% formaldehyde/PBS), and are counted using an Accuri flow cytometer. […]

The next series has as its system fibronectin. Nature of the series: Fibronectin adhesion assay, HUVEC. Type of series: cell-based, human. The settings on record: ML 141 10 μM, 18-20 h; re-plated 2 h; vehicle 24±4%. Here is the method: FIG. 10C is a graph illustrating that ML 141 decreases cell adhesion to fibronectin-coated surface. HUVEC were pretreated as in FIGS. 10A and 10B, lifted from culture dishes using cell scrapers, and re-plated (2 h) onto non-tissue culture treated plates coated with fibronectin and blocked with bovine serum albumin. Following extensive washes, cells were recovered using trypsin and counted using an Accuri C6 flow cytometer (*p<0.05 by t-test on log-transformed data pooled from 2 independent experiments, n=8/treatment).
HUVEC were plated and pretreated as described for the invasion assay. 96-well, non-tissue culture treated plates (Sarstedt, Newton, N.C.) were coated with fibronectin (20 μg/ml; 2 h; 37° C.), washed with PBS, and blocked with bovine serum albumin (2%, 30 min, RT). HUVEC were lifted from the 35 mm dishes using cell scrapers, 100 μl counted for normalization using the Accuri C6, and 200 μl transferred to the 96-well plate (2 h, 5% CO2, 37° C.). After extensive washes in PBS, cells were removed from the plate using trypsin, washed in FACS buffer, fixed, and 100 μl counted. These cell counts were normalized to those that had been taken prior to plating on the fibronectin-coated plate.

A short description of series [2]: In vivo toxicity, single intraperitoneal injection. The settings on record: dissolved in polyethylene glycol, C57BL/6 mice. The procedure:
Specific pharmacologic inhibition of CDC42 has been examined to determine whether it is sufficient in the inhibition of host cell invasion by S. aureus. Host cell cytotoxicity was undetectable below 30 μM in vitro. The highest concentration of ML 141 introduced in vivo without detectable toxicity was 100 mg/kg body weight [BW]. The compound was dissolved in polyethylene glycol and administered as a single intraperitoneal injection to C57BL/6 mice.

The test system of a further series is RAW 264.7 cells. Briefly: Cytotoxicity by propidium iodide, RAW 264.7 cells. The settings on record: RAW 264.7 pretreated 18-20 h. Format: cell-based.
Series [3] deals with Staphylococcus aureus. Briefly: Assessment of bactericidal activity (HUVEC media). Type of series: cell-based. Here is the method:
FIG. 6B illustrates that neither cytotoxicity nor bactericidal activity is detected. Cultures of Staphylococcus aureus that had been incubated with the vehicle control DMSO or with ML 141 (1 hour, 37° C., 225 rpm) were serially diluted, plated onto blood agar, and incubated (18 hours, 37° C.). Colonies were enumerated and colony forming units (CFU)/ml determined. CFU/ml were not different amongst the groups (p>0.05 by t-test; n=2/treatment). […]

Series [4] deals with Human umbilical vein endothelial cells. Nature of the series: Cytotoxicity assay (XTT), HUVEC. The conditions noted are these: HUVEC treated overnight, PEG solvent. Type of series: cell-based. The procedure: FIG. 6A illustrates that neither cytotoxicity nor bactericidal activity is detected. Human umbilical vein endothelial cells (HUVEC) were pretreated (18 hours) with the vehicle control polyethylene glycol (PEG) or with ML 141 and viability assessed using an XTT assay. The formazan dye produced in living cells was detectable at an absorbance wavelength of 490 nanometers and used as an indicator of cell viability. Absorbance values were not different amongst the groups (p>0.05 by one-way ANOVA; n=3/treatment).
HUVEC are plated at a density of 1.2×10^4 cells/ml into 96-well dishes coated with Attachment Factor. The next day, cells are pretreated with the vehicle control DMSO or with ML 141 (18 hours). An XTT-reducing assay is performed and absorbance read at 490 nanometers using a Bio-Rad plate reader.
For orientation: Formazan colour is commonly taken as a measure of viable cells.

Series [5] has the same test system. Nature of the series: Cytotoxicity by propidium iodide exclusion, HUVEC. Format: cell-based.
For series [6], the system named is Staphylococcus aureus. Briefly: S. aureus invasion in all cell types examined. Type of series: cell-based. The conditions noted are these: HUVEC, HEK, U-87 MG, RAW and A549. The procedure: Two days prior to the assay, TSB is inoculated with S. aureus (American Type Culture Collection #29213) and incubated overnight (225 rpm, 37° C.). Bacteria are subcultured the next day into fresh TSB. On the day of the assay, bacteria are pelleted (10000×g, 37° C., 3 min), are washed in saline, are pelleted as above, are resuspended in saline, then fluorescently labeled by incubation with rabbit anti-mouse IgG Alexa Fluor 488 (final concentration 8 μg/ml, RT, 20 min). Protein A, a S. aureus cell surface protein, avidly binds IgG thereby labeling the bacteria. Labeled bacteria are washed twice as above and are resuspended to 3×10^8 CFU/ml in saline. Host cells are incubated with the bacteria for 1 hour (1.2×10^8 CFU/ml for same-day recovery, 5×10^6 for recovery after 48 hours, 1.4×10^7 CFU/ml; 5% CO2, 37° C.). […] To detect the level of infection using flow cytometry, cells that have been infected with fluorescently-labeled bacteria are washed extensively with PBS, lifted from 96-well plate by incubation with trypsin, washed extensively in FACS buffer (2% BSA/0.1% sodium azide/PBS), fixed (FACS buffer containing 0.74% formaldehyde), and are counted using an Accuri flow cytometer (BD, Franklin Lakes, N.J.). They are also lifted from culture dishes using cell scrapers, pelleted, fixed (1% BSA/0.74% formaldehyde/PBS), and are counted using an Accuri flow cytometer. […]

“Also recorded” adds a separate entry of the source.

Take `COc1ccc(C2CC(c3ccccc3)=NN2c2ccc(S(N)(=O)=O)cc2)cc1` (stereo not shown) [ML 141, 4-[3-(4-methoxyphenyl)-5-phenyl-3,4-dihydropyrazol-2-yl]benzenesulfonamide]: the “viable intracellular bacteria recovered 48 hours post-infection” value in the series with Staphylococcus aureus [1] is given as “diminished the number of viable bacteria recovered; also recorded: lower”. In addition, in the series with fibronectin, the “adherence of HUVEC to fibronectin-coated plates” value is reported as 14±2%. Further, the “highest concentration introduced in vivo without detectable toxicity” value in series [2] is 100 mg/kg body weight. The “Mean fluorescence intensity (×10^3 ± SEM), Compound (10 μM)” value in the series on RAW 264.7 cells was 2.5 ± 0.3 ×10^3. The “CFU (×10^8 ± SEM), Compound (10 μM)” value with Staphylococcus aureus [3] (1.2 × 10^8 CFU S. aureus, 1 h in HUVEC media, 10 μM) was 8.8 ± 2.9 ×10^8 CFU. Also, the “Bactericidal activity (in words)” value with Staphylococcus aureus [3] (S. aureus incubated 1 h with compound, FIG. 6B, Tables 6 and 7) is listed as “not detected”. Also, the “Cytotoxicity (XTT, absorbance 490 nm)” value in series [4] was “not detectable”. For the same molecule, the “Cytotoxicity (in words)” value in series [5] (10 μM, 18-20 h, Tables 4 and 5) is “not detected”. The “Mean fluorescence intensity (×10^4 ± SEM), Compound (10 μM)” value in series [5] (HUVEC pretreated 18-20 h) is on record as 2.1 ± 0.3 ×10^4. Also, in the series on Staphylococcus aureus [6], the “inhibition of invasion in all cell types examined” value is listed as “inhibited invasion”.
